Measured values: patent publication US10407467B2, “Polymyxin derivatives and their use in combination therapy together with different antibiotics” (priority 2013, dated 2019)
Structures can show the parent of a compound that is named as a salt. Numbered stars: 1 amine (or outer) side, 2 acyl side, 3 side chain; on linkers, the order of the positions; unused ones are H or OH. Bridge positions count the residues as written; N and C are the ends. Square brackets hold non-standard residues; d marks the D form. Peptide text beside a SMILES is read from it. * marks the point of attachment. ξ: configuration not given here. X25 = CC(O)[C@@H](C(=O)[*:2])N(CCC1(N)CCCCC1)[*:1]; Hyp = O=C(O)[C@@H]1C[C@@H](O)CN1; X24 = O=C(CCN1CCS(=O)(=O)CC1)*; Thr(3ξ) = CC(O)[C@H](N)C(=O)O; Chg = N[C@H](C(=O)O)C1CCCCC1; 4Abz = Nc1ccc(C(=O)O)cc1; Dab = NCC[C@H](N)C(=O)O

Tests used:
Klebsiella pneumoniae = assay: MIC, compound in combination with a second agent (broth microdilution); assay type: cell-based; settings: 1:1 (wt:wt) combination with Rifampicin
Protocol: (§1) To evaluate the potency and spectrum of the compounds both alone and in combination with another agent, susceptibility testing was performed against up to four strains of each of the four Gram negative pathogens, Escherichia coli, Pseudomonas aeruginosa, Klebsiella pneumoniae and Acinetobacter baumannii.
(§2) Ratios of components in a combination, such as 1:1, refers to a weight to weight ratio. The minimum inhibitory concentration (MIC) refers to the total drug concentration (e.g. test compound plus second agent, such as Rifampicin).
(§3) The inoculum was prepared by making a direct suspension of isolated colonies (selected from an 18-24 hour Mueller-Hinton agar plate) adjusted to the 0.5 McFarland standard.
(§4) The assays were performed in duplicate.
(§5) In cases where the duplicate values varied by less than 2-fold, the lower of the two values is reported. If a variation of greater than 2-fold was observed, the assay was considered non-valid. Several of the compounds were subjected to multiple tests, and where this is the case, the MIC reflects the modal value obtained.
(§6) The minimum inhibitory concentration refers to the total drug concentration (e.g. test compound plus Rifampicin). The compounds are used at equal mass within the combination. The weight refers to the mass of compound as used, for example the Example Compounds are used in their TFA or sulphate salt forms.
(§7) MICs refer to the total drug concentration. Thus, where a 1:1 combination is used, this is the amount of the test compound plus the second agent. For comparison, the MIC values for the second agent alone are also given.

Pseudomonas aeruginosa = assay: as above; assay type: cell-based; settings: 1:1 (wt:wt) combination with Rifampicin
Protocol: as §1, §2, §3, §4, §5, §6, §7

[1] = MIC = total drug concentration, strain ATCC-BAA-2146
[2] = MIC = total drug concentration, strain CCUG-59348
[3] = MIC = total drug concentration, strain NCTC 13438
[4] = MIC is total drug concentration
[5] = MIC = total drug concentration, strain CCUG 59626

Compound	MIC K. pneumoniae ATCC-BAA-2146 (Klebsiella pneumoniae; [1]) [micrograms/mL]	MIC K. pneumoniae CCUG-59348 (Klebsiella pneumoniae; [2]) [micrograms/mL]	MIC K. pneumoniae NCTC 13438 (Klebsiella pneumoniae; [3]) [micrograms/mL]	MIC P. aeruginosa CCUG 59626 (Pseudomonas aeruginosa; [5]) [micrograms/mL]	MIC K. pneumoniae ATCC-BAA-2146 (Klebsiella pneumoniae; [4]) [micrograms/mL]	MIC K. pneumoniae CCUG-59348 (Klebsiella pneumoniae; [4]) [micrograms/mL]	MIC K. pneumoniae NCTC 13438 (Klebsiella pneumoniae; [4]) [micrograms/mL]	MIC P. aeruginosa CCUG 59626 (Pseudomonas aeruginosa; [4]) [micrograms/mL]
CC(C)C[C@@H]1NC(=O)[C@@H](Cc2ccccc2)NC(=O)[C@H](CCN)NC(=O)[C@@H](NC(=O)[C@H](CCN)NC(=O)[C@@H](NC(=O)c2ccc(N)cc2)C(C)O)CCNC(=O)[C@H](C(C)O)NC(=O)[C@H](CCN)NC(=O)[C@H](CCN)NC1=O (stereo partly shown) [Example 5, 4-Aminobenzoyl polymyxin B nonapeptide] (H-[4Abz][Thr(3ξ)][Dab][Dab][Dab][dF]L[Dab][Dab][Thr(3ξ)]; lactam 4-C)	1	2	1	0.25	1	2	1	0.25
CC(C)C[C@@H]1NC(=O)[C@@H](Cc2ccccc2)NC(=O)[C@H](CCN)NC(=O)[C@@H](NC(=O)[C@H](CCN)NC(=O)[C@@H](NC(=O)[C@@H]2C[C@@H](O)CN2)C(C)O)CCNC(=O)[C@H](C(C)O)NC(=O)[C@H](CCN)NC(=O)[C@H](CCN)NC1=O (stereo partly drawn) [Example 35, (2S,4R)-4-Hydroxy-2-pyrrolidine carbonyl polymyxin B nonapeptide, trifluoroacetate salt] (H-[Hyp][Thr(3ξ)][Dab][Dab][Dab][dF]L[Dab][Dab][Thr(3ξ)]; lactam 4-C)	4	16	4	0.5				
CC(C)C[C@@H]1NC(=O)[C@@H](Cc2ccccc2)NC(=O)[C@H](CCN)NC(=O)[C@@H](NC(=O)[C@H](CCN)NC(=O)[C@@H](NCCC2(N)CCCCC2)C(C)O)CCNC(=O)[C@H](C(C)O)NC(=O)[C@H](CCN)NC(=O)[C@H](CCN)NC1=O (stereo partly shown) [Example 49, N-[2-(1-aminocyclohexyl)ethyl] Polymyxin B nonapeptide] (H-[X25][Dab][Dab][Dab][dF]L[Dab][Dab][Thr(3ξ)]; lactam 3-C)	2	8		0.25				

More lines, main results first:

MIC K. pneumoniae ATCC-BAA-2146 (Klebsiella pneumoniae; [1]) [micrograms/mL]	MIC K. pneumoniae CCUG-59348 (Klebsiella pneumoniae; [2]) [micrograms/mL]	MIC K. pneumoniae NCTC 13438 (Klebsiella pneumoniae; [3]) [micrograms/mL]	MIC P. aeruginosa CCUG 59626 (Pseudomonas aeruginosa; [5]) [micrograms/mL]	Compound	MIC K. pneumoniae ATCC-BAA-2146 (Klebsiella pneumoniae; [4]) [micrograms/mL]	MIC K. pneumoniae CCUG-59348 (Klebsiella pneumoniae; [4]) [micrograms/mL]	MIC K. pneumoniae NCTC 13438 (Klebsiella pneumoniae; [4]) [micrograms/mL]	MIC P. aeruginosa CCUG 59626 (Pseudomonas aeruginosa; [4]) [micrograms/mL]
4	16	4	0.5	CC(C)C[C@@H]1NC(=O)[C@@H](Cc2ccccc2)NC(=O)[C@H](CCN)NC(=O)[C@@H](NC(=O)[C@H](CCN)NC(=O)[C@@H](NC(=O)CCN2CCS(=O)(=O)CC2)C(C)O)CCNC(=O)[C@H](C(C)O)NC(=O)[C@H](CCN)NC(=O)[C@H](CCN)NC1=O (stereo partly shown) [Example 12, 3-(1,1-dioxo-thiomorpholine-4-yl)propanoyl Polymyxin B nonapeptide] (X24-[Thr(3ξ)][Dab][Dab][Dab][dF]L[Dab][Dab][Thr(3ξ)]; lactam 3-C)				
2	8		0.5	CC(C)C[C@@H]1NC(=O)[C@@H](Cc2ccccc2)NC(=O)[C@H](CCN)NC(=O)[C@@H](NC(=O)[C@H](CCN)NC(=O)[C@@H](NC(=O)[C@@H](N)C2CCCCC2)C(C)O)CCNC(=O)[C@H](C(C)O)NC(=O)[C@H](CCN)NC(=O)[C@H](CCN)NC1=O (stereo partly drawn) [Example 40, 2-(S)-(2-amino-2-cyclohexyl)ethanoyl polymyxin B nonapeptide, trifluoroacetate salt] (H-[Chg][Thr(3ξ)][Dab][Dab][Dab][dF]L[Dab][Dab][Thr(3ξ)]; lactam 4-C)				
